Our source for the IC50 and Kd values is patent publication US11987572B2, “Therapeutic compounds and methods of use thereof” (REGENTS OF THE UNIVERSITY OF MINNESOTA, priority 2019, dated 2024).

Where two headings read alike, the source gives them in different places. Where only a bound is given, the exact number is not on record here.

What all share (assay type): binding
One assay addresses T1, BRD4-D1 (Homo sapiens, UniProt O60885).
T1 construct: His6 BRD4 D1 were expressed and purified as reported by A. K. Urick; His6; made in house
Put plainly: Fluorescence anisotropy competition with Fl-JQ1. In general terms: Polarisation of emitted light reports the rotation of a fluorescent probe.

The target in a further assay is T2, BRD4-D2 (Homo sapiens, UniProt O60885).
T2 construct: the second bromodomain of BRD4 (residues 333-460); host or cells: E. coli BL21 Star (DE3)
Put plainly: Fluorescence anisotropy competition with Fl-JQ1.

Another assay deals with T3, p38α (Homo sapiens, UniProt Q16539).
T3 construct: phage display fusion; purchased Eurofins DiscoverX (Fremont California), KINOMEscan service
Put plainly: p38 competitive inhibition assay (KINOMEscan, Eurofins DiscoverX). Particulars: mean of two biological replicates.

A further assay addresses T4, His9-BRD4 D1 (Homo sapiens, UniProt O60885).
T4 construct: 7.5-60 nM for His9-tagged BRD4 D1; made in house; host or cells: E. coli BL21(DE3) with pRARE
Put plainly: AlphaScreen assay with His9-BRD4 D1. The following applies: mean of two technical replicates. A general note: In Alpha technology, singlet oxygen from a donor bead excites a nearby acceptor bead.

Where [1] appears, read: mean and standard deviation of three independent trials, read-out: IC50 BRD4-D1.
The mark [2] stands for this setting: mean and SEM of three biological replicates, read-out: BRD4 D1 IC50 by FA.

T3 sequence (Q16539 whole entry, the tested form may be a part): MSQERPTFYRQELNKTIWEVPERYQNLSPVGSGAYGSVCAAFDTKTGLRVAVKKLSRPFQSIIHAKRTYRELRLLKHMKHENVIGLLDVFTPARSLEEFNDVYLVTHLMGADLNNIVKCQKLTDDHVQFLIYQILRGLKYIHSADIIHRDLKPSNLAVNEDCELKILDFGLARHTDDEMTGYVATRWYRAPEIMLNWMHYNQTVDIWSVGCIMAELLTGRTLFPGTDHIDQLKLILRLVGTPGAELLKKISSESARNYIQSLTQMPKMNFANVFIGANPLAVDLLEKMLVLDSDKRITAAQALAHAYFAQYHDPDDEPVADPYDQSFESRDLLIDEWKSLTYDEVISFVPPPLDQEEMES

What is called IC50 is the concentration that inhibits the measured activity by half. In the case of `Cc1cc(C)cc(Oc2nccc(-c3c(C)nnn3C3CCNCC3)n2)c1`, the IC50 on BRD4-D1 (setting [1]) amounted to 3.01 µM; on BRD4-D2, 5.87 µM. Turning to `Cc1cc(C)cc(Oc2nccc(-c3c(C(C)C)nnn3C3CCNCC3)n2)c1`, the IC50 at BRD4-D1 (setting [2]) was over 100 µM. On to `CCCc1nnn(C2CCNCC2)c1-c1ccnc(Oc2cc(C)cc(C)c2)n1`, for which the IC50 on BRD4-D1 (setting [2]) is over 100 µM. For the compound `Cc1cc(C)cc(Oc2cncc(-c3c(C)nnn3C3CCNCC3)c2)c1`, the IC50 at BRD4-D1 (setting [2]) was over 100 µM.

With `Cc1cc(C)cc(Oc2cc(-c3c(C)nnn3C3CCNCC3)ccn2)c1`, on BRD4-D1 (setting [2]), the IC50 is 97 ± 2.6 µM.

On to `Cc1cc(C)cc(Oc2ccnc(-c3c(C)nnn3C3CCNCC3)c2)c1`, for which, at BRD4-D1 (setting [2]), the 50% inhibitory concentration (IC50) was over 100 µM. The Kd is a measure of binding affinity in units of concentration. Read a high Kd as weaker binding. Turning to `Cc1cc(C)cc(Nc2cccc(-c3c(C)nnn3C3CCNCC3)n2)c1`, the IC50 at BRD4-D1 (setting [2]) worked out at 4.5 ± 0.35 µM. Moreover, the Kd at p38α is over 25 nM. On the same counts, the results for `Cc1cc(C)cc(Nc2nccc(-c3c(-c4ccc(F)cc4)nnn3C3CCNCC3)n2)c1` are over 100 µM and 120 ± 51 nM. On to `Cc1cc(C)cc(Oc2nccc(-c3c(C4CC4)nnn3C3CCN(C(=N)N)CC3)n2)c1`, for which the IC50 at BRD4-D1 (setting [2]) was 61 ± 8.1 µM. Still for that read-out and setting: under `Cc1cc(C)cc(Nc2cccc(-c3c(C)nnn3C3CCN(C(=N)N)CC3)n2)c1` stands 4.5 ± 0.35 µM. For the compound `Cc1ccc(-c2ncn(C3CCNCC3)c2-c2ccnc(Nc3cc(C)cc(C)c3)n2)cc1`, the IC50 at BRD4-D1 (setting [2]) turned out to be 1.2 ± 0.2 µM; at His9-BRD4 D1, 1100 nM. On the same counts, the results for `Cc1cc(C)cc(Nc2nccc(-c3c(-c4ccc(Cl)cc4)ncn3C3CCN(C(=N)N)CC3)n2)c1` are 1.6 µM and 1400 nM.

As for `Cc1cc(C)cc(Nc2nccc(-c3c(-c4ccccc4)ncn3C3CCNCC3)n2)c1`, the values for the IC50 at BRD4-D1 (setting [2]) and at His9-BRD4 D1 were 4.5 ± 0.2 µM and 2600 nM, respectively. Take `Cc1ccc(Nc2nccc(-c3c(-c4ccc(F)cc4)ncn3C3CCNCC3)n2)cc1C`: on BRD4-D1 (setting [2]), the IC50 was 1.3 ± 0.2 µM. Still for that read-out and setting: under `Fc1ccc(-c2ncn(C3CCNCC3)c2-c2ccnc(Oc3cc(F)cc(F)c3)n2)cc1` stands over 250 µM. In turn, `Cc1cc(C)cc(Nc2nccc(-c3c(CO)nnn3C3CCNCC3)n2)c1` gave an IC50 on His9-BRD4 D1 of 160000 nM.

Turning to `Cc1cc(C)cc(Nc2nccc(-c3c(-c4ccc(C(F)(F)F)cc4)ncn3C3CCN(CCN(C)C)CC3)n2)c1`, the IC50 amounted to 0.15 ± 0.03 µM on BRD4-D1 (setting [2]) and 200 nM against His9-BRD4 D1. For the compound `CC(=O)NCCN1CCC(n2cnc(-c3ccc(C(F)(F)F)cc3)c2-c2ccnc(Nc3cc(C)cc(C)c3)n2)CC1`, the IC50 on BRD4-D1 (setting [2]) was found to be 0.42 ± 0.01 µM; at His9-BRD4 D1 it was 1500 nM. In the case of `Cc1cc(C)cc(Oc2cccc(-c3c(-c4ccc(C(F)(F)F)cc4)ncn3C3CCN(CCN)CC3)n2)c1`, the IC50 at BRD4-D1 (setting [2]) came out at 1.1 ± 0.01 µM; against His9-BRD4 D1, 1300 nM. The same compound had a Kd on p38α of over 30000 nM. With `Cc1cc(C)cc(Oc2nccc(-c3c(C)nnn3C3CCN(C(=N)N)CC3)n2)c1` [drawing 179], the half-maximal inhibitory concentration (IC50) at BRD4-D1 (setting [1]) stood at 9.7 ± 1.8 µM. On the same count and under the same terms, in the case of `Cc1cc(C)cc(Oc2cccc(-c3c(C)nnn3C3CCN(C(=N)N)CC3)c2)c1` [drawing 180] it was 12 ± 1.1 µM; in that of `Cc1cc(C)cc(Oc2cccc(-c3c(C)nnn3C3CCN(C(=N)N)CC3)n2)c1` [drawing 181], 3.6 ± 0.05 µM. Same read-out and setting: in the case of `Cc1cc(C)cc(Oc2cc(-c3c(C)nnn3C3CCN(C(=N)N)CC3)ccn2)c1` [drawing 182] it was 97 ± 2.6 µM; in that of `Cc1cc(C)cc(Oc2ccnc(-c3c(C)nnn3C3CCN(C(=N)N)CC3)c2)c1` [drawing 184], over 100 µM. For `Cc1cc(Oc2cccc(-c3c(C)nnn3C3CCNCC3)n2)cc(C(C)C)c1` [drawing 187], the IC50 on BRD4-D2 was 4.76 µM.

For the compound `CCC(C)c1cc(C)cc(Oc2cccc(-c3c(C)nnn3C3CCNCC3)n2)c1` (centres unmarked) [drawing 188], the figures for the concentration for half-maximal inhibition (IC50) on BRD4-D1 (setting [1]) and on BRD4-D2 were 3.21 ± 0.3 µM and 7.35 µM, respectively. On the same counts, the results for `Cc1cc(Oc2cccc(-c3c(C)nnn3C3CCNCC3)n2)cc(C2CCCC2)c1` [drawing 189] are 4.44 µM and 7.35 µM.

Regarding `CCCCc1cc(CCCC)cc(Oc2cccc(-c3c(C)nnn3C3CCNCC3)n2)c1` [drawing 195], the figures for the half-inhibitory concentration (IC50) at BRD4-D1 (setting [1]) and at BRD4-D2 were 8.61 µM and 27.7 µM, respectively. As for `Cc1nnn(C2CCNCC2)c1-c1cccc(Oc2cc(C3CCCCC3)cc(C3CCCCC3)c2)n1` [drawing 197], the IC50 at BRD4-D1 (setting [1]) is 62.6 µM. `Cc1nnn(C2CCNCC2)c1-c1cccc(Oc2cc(C(F)(F)F)cc(C(F)(F)F)c2)n1` [drawing 199] came in with an IC50 on BRD4-D2 of 45.6 µM.

For the compound `Cc1cc(C)cc(Oc2nccc(-c3c(C)nnn3C3CCN(C(=N)N)CC3)n2)c1` [drawing 222], the IC50 on BRD4-D1 (setting [2]) turned out to be 9.7 ± 1.8 µM.

With `Cc1cc(C)cc(Oc2cccc(-c3c(C)nnn3C3CCN(C(=N)N)CC3)c2)c1` [drawing 223], on BRD4-D1 (setting [2]), the IC50 was 12 ± 1.1 µM. In the case of `Cc1cc(C)cc(Oc2cccc(-c3c(C)nnn3C3CCN(C(=N)N)CC3)n2)c1` [drawing 224], on BRD4-D1 (setting [2]), the IC50 was 3.6 ± 0.05 µM. The same measure, in the same setting: in the case of `Cc1cc(C)cc(Oc2cc(-c3c(C)nnn3C3CCN(C(=N)N)CC3)ccn2)c1` [drawing 225] it was 97 ± 2.6 µM; in that of `Cc1cc(C)cc(Oc2ccnc(-c3c(C)nnn3C3CCN(C(=N)N)CC3)c2)c1` [drawing 227], over 100 µM. `Cc1cc(Oc2cccc(-c3c(C)nnn3C3CCNCC3)n2)cc(C(C)C)c1` [drawing 251] came in with an IC50 on His9-BRD4 D1 of 4760 nM.

`CCC(C)c1cc(C)cc(Oc2cccc(-c3c(C)nnn3C3CCNCC3)n2)c1` (centres unmarked) [drawing 252]: the IC50 on BRD4-D1 (setting [2]) is 3.21 ± 0.3 µM; at His9-BRD4 D1 it was 7350 nM. On to `Cc1cc(Oc2cccc(-c3c(C)nnn3C3CCNCC3)n2)cc(C2CCCC2)c1` [drawing 253], for which the half-inhibitory concentration (IC50) on BRD4-D1 (setting [2]) came out at 4.44 µM. With `CCCCc1cc(CCCC)cc(Oc2cccc(-c3c(C)nnn3C3CCNCC3)n2)c1` [drawing 259], the IC50 at BRD4-D1 (setting [2]) stood at 8.61 µM; against His9-BRD4 D1, 27700 nM. In the case of `Cc1nnn(C2CCNCC2)c1-c1cccc(Oc2cc(C3CCCCC3)cc(C3CCCCC3)c2)n1` [drawing 261], at BRD4-D1 (setting [2]), the IC50 worked out at 62.6 µM. On His9-BRD4 D1, `Cc1nnn(C2CCNCC2)c1-c1cccc(Oc2cc(C(F)(F)F)cc(C(F)(F)F)c2)n1` [drawing 263] came in with an IC50 of 45600 nM.
